{"source": "the kinase profiling compilation of Christmann-Franck et al. (2016)", "assay_in_all_cases": "radiometric filter-binding kinase assay, Kinase HotSpot", "conditions_in_all_cases": "compound 0.5 µM; ATP 10 µM", "key": {"[1]": {"target": "FLT3 (human) (UniProt P36888)"}, "[2]": {"tested_on": "FLT4 (human), P35916 [Q890H]"}, "[3]": {"target": "CHEK1 (human) (UniProt O14757)", "sequence (O14757 whole entry, looked up)": "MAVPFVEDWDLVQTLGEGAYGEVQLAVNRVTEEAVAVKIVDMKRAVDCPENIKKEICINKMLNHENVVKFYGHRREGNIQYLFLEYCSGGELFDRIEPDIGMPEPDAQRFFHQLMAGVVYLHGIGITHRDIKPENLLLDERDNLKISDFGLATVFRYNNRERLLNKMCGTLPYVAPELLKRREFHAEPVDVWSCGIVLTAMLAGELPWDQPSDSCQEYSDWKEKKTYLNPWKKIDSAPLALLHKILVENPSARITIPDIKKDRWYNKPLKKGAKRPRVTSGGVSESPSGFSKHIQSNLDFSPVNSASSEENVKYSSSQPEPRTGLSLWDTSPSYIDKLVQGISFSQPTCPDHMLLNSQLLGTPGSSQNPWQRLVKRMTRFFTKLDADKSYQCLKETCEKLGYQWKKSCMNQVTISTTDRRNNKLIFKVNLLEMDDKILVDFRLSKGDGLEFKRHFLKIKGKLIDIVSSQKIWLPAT"}, "[4]": {"target": "WNK2 (human) (UniProt Q9Y3S1)"}, "[5]": {"target": "DSTYK (human) (UniProt Q6XUX3)"}, "[6]": {"target": "OXSR1 (human) (UniProt O95747)"}, "[7]": {"target": "SRPK2 (human) (UniProt P78362)"}, "[8]": {"target": "TLK2 (human) (UniProt Q86UE8)"}, "[9]": {"target": "NEK3 (human) (UniProt P51956)"}, "[10]": {"target": "DAPK1 (human) (UniProt P53355)"}, "[11]": {"target": "NLK (human) (UniProt Q9UBE8)"}, "[12]": {"target": "BRSK2 (human) (UniProt Q8IWQ3)"}, "[13]": {"target": "CDK4 CCND3 (human) (UniProt P30281+P11802)"}, "[14]": {"target": "STK38 (human) (UniProt Q15208)"}, "[15]": {"target": "MAPK1 (human) (UniProt P28482)"}, "[16]": {"target": "SIK2 (human) (UniProt Q9H0K1)"}, "[17]": {"target": "CAMK2D (human) (UniProt Q13557)"}, "[18]": {"target": "PDGFRA (human) (UniProt P16234)"}, "[19]": {"target": "AKT2 (human) (UniProt P31751)"}, "[20]": {"target": "DCLK2 (human) (UniProt Q8N568)", "sequence (Q8N568 whole entry, looked up)": "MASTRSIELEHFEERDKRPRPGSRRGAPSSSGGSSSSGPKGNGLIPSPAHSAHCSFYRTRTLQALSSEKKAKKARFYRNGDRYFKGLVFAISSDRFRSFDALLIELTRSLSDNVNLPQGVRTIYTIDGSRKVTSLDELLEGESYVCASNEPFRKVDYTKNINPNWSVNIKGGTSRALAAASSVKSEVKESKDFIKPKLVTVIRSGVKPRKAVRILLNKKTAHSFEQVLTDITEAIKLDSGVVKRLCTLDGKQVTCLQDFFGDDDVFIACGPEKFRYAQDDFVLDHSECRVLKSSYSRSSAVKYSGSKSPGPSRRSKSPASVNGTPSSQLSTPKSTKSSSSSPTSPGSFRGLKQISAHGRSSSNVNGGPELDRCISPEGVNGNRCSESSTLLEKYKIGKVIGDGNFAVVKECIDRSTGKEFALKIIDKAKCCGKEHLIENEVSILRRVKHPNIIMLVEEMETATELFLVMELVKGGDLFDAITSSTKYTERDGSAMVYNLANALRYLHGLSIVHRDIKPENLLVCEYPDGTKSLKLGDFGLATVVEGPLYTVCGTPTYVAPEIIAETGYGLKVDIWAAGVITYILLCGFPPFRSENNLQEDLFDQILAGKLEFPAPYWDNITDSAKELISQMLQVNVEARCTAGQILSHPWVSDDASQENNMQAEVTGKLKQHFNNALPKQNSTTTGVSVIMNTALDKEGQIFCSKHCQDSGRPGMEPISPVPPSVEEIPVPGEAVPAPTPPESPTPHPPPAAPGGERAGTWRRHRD"}, "[21]": {"target": "GSG2 (human) (UniProt Q8TF76)", "sequence (Q8TF76 whole entry, looked up)": "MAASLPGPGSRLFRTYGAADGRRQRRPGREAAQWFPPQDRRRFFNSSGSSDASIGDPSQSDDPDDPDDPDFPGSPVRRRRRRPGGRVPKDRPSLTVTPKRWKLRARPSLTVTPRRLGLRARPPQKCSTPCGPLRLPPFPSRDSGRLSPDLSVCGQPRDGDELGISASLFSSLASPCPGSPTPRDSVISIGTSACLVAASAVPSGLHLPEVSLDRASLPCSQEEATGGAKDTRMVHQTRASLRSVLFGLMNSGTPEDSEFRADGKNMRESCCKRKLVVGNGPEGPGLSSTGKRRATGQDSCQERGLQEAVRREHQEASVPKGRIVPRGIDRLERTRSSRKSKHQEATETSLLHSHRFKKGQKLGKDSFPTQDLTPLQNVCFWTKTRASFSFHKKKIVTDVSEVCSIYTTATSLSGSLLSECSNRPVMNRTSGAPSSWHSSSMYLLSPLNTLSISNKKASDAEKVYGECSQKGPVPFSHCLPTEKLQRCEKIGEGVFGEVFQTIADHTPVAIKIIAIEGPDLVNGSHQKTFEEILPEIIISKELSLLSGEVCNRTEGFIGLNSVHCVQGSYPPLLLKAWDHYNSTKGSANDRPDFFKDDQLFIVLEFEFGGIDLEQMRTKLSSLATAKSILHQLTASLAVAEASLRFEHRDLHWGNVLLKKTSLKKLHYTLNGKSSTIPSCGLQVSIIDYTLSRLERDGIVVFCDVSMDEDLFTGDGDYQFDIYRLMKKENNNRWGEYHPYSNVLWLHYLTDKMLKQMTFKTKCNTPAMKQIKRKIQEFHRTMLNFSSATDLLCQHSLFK"}, "[22]": {"target": "STK4 (human) (UniProt Q13043)"}, "[23]": {"tested_on": "MKNK1 (human), Q9BUB5 [T385D; 165-205 del]"}, "[24]": {"target": "CDK7 CCNH MNAT1 (human) (UniProt P50613+P51948+P51946)", "sequence (P50613 whole entry, looked up)": "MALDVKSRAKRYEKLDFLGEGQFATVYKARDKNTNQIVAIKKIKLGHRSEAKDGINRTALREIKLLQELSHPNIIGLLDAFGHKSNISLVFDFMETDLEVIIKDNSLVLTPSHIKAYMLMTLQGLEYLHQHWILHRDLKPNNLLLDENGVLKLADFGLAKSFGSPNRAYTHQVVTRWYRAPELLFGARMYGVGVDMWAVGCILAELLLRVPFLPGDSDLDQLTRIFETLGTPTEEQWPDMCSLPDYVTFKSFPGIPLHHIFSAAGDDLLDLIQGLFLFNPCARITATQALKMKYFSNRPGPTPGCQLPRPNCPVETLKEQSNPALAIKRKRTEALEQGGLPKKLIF", "sequence (P51946 whole entry, looked up)": "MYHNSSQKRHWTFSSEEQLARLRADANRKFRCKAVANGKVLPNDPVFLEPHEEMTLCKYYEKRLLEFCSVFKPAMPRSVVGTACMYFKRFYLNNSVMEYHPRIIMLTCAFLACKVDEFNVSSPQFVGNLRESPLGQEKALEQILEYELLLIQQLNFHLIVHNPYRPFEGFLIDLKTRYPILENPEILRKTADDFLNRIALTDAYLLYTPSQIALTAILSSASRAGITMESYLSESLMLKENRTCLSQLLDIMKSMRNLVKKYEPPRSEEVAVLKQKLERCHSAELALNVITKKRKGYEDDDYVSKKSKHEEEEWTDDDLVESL", "sequence (P51948 whole entry, looked up)": "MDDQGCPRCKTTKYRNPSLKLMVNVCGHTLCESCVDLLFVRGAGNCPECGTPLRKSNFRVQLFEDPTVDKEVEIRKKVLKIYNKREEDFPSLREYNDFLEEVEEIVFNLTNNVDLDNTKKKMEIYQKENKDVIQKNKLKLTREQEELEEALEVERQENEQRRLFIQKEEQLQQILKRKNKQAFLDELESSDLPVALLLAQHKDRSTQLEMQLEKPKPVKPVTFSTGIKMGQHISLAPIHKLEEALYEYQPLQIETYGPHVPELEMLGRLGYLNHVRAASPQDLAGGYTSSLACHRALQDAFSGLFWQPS"}, "[25]": {"target": "DYRK3 (human) (UniProt O43781)"}, "[26]": {"target": "CDK4 CCND1 (human) (UniProt P24385+P11802)"}, "[27]": {"target": "ULK3 (human) (UniProt Q6PHR2)", "sequence (Q6PHR2 whole entry, looked up)": "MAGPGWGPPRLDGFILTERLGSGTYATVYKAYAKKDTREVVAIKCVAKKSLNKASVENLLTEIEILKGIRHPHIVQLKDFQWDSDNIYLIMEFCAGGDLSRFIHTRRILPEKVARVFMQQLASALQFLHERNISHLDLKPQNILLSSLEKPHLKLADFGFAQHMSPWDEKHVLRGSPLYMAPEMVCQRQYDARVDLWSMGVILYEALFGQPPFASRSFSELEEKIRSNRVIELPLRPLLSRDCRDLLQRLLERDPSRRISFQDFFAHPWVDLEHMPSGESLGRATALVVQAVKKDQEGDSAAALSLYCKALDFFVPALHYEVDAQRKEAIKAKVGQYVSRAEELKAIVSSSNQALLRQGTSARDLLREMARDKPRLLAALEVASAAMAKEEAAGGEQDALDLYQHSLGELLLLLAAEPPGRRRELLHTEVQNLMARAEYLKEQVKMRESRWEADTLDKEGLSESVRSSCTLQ"}, "[28]": {"target": "NUAK2 (human) (UniProt Q9H093)", "sequence (Q9H093 whole entry, looked up)": "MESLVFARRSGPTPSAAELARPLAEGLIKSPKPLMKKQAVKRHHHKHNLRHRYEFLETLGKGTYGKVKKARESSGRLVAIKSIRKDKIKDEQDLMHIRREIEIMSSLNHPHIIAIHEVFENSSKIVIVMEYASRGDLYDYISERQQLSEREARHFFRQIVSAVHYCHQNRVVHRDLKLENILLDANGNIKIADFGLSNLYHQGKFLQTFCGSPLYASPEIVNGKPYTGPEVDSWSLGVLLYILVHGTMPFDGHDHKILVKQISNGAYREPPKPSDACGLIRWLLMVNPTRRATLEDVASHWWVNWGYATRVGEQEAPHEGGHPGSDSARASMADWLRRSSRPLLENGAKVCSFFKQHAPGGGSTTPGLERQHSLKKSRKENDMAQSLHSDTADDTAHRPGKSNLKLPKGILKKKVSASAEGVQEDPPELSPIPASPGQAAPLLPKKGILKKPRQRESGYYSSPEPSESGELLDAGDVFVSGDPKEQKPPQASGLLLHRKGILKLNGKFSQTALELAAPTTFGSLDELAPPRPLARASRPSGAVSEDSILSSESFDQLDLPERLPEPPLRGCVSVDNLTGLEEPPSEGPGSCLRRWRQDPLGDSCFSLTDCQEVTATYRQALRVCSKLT"}, "[29]": {"target": "MYO3B (human) (UniProt Q8WXR4)"}, "[30]": {"target": "PHKG2 (human) (UniProt P15735)"}, "[31]": {"target": "EPHA6 (human) (UniProt Q9UF33)"}, "[32]": {"target": "TTK (human) (UniProt P33981)"}, "[33]": {"target": "MATK (human) (UniProt P42679)"}, "[34]": {"target": "PBK (human) (UniProt Q96KB5)"}, "[35]": {"target": "ROCK1 (human) (UniProt Q13464)"}, "[36]": {"target": "ALK (human) (UniProt Q9UM73)"}, "[37]": {"target": "ADRBK2 (human) (UniProt P35626)"}, "[38]": {"target": "IRAK1 (human) (UniProt P51617)"}, "[39]": {"target": "RPS6KA3 KD1 KD2 (human) (UniProt P51812)"}, "[40]": {"target": "TNK2 (human) (UniProt Q07912)"}, "[41]": {"target": "MARK1 (human) (UniProt Q9P0L2)", "sequence (Q9P0L2 whole entry, looked up)": "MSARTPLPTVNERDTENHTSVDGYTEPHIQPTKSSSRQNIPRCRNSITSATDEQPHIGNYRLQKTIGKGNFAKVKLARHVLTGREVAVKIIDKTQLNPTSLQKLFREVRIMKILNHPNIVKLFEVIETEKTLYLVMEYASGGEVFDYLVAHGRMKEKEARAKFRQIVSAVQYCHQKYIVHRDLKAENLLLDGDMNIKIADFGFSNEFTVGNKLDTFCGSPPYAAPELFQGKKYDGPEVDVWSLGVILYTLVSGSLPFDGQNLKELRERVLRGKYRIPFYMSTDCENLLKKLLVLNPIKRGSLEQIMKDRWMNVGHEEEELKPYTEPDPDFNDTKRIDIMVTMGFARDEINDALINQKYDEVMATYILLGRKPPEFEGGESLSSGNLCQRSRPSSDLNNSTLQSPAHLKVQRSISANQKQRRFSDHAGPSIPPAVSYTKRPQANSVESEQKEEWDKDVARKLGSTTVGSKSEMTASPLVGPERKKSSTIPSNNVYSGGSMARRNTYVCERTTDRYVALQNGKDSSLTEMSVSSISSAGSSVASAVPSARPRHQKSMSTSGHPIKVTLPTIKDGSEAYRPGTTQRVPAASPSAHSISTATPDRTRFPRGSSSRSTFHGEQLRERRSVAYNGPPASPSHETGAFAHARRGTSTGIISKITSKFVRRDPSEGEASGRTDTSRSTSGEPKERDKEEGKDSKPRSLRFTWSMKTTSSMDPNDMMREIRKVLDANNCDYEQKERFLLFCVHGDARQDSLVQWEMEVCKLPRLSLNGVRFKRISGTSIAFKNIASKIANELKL"}, "[42]": {"target": "WEE1 (human) (UniProt P30291)"}}, "data": [{"smiles": "COc1cc2ncnc(Nc3ccc(Oc4ccccc4)cc3)c2cc1OC", "values": [{"measurement": "residual activity", "setting": "[1]", "result": 3.23, "unit": "%"}, {"measurement": "residual activity", "setting": "[2]", "result": 62.5, "unit": "%"}, {"measurement": "residual activity", "setting": "[3]", "result": 97.4, "unit": "%"}, {"measurement": "residual activity", "setting": "[4]", "result": 88.1, "unit": "%"}, {"measurement": "residual activity", "setting": "[5]", "result": 91.6, "unit": "%"}, {"measurement": "residual activity", "setting": "[6]", "result": 97.5, "unit": "%"}, {"measurement": "residual activity", "setting": "[7]", "result": 101, "unit": "%"}, {"measurement": "residual activity", "setting": "[8]", "result": 107, "unit": "%"}, {"measurement": "residual activity", "setting": "[9]", "result": 98.4, "unit": "%"}, {"measurement": "residual activity", "setting": "[10]", "result": 105, "unit": "%"}, {"measurement": "residual activity", "setting": "[11]", "result": 100, "unit": "%"}, {"measurement": "residual activity", "setting": "[12]", "result": 101, "unit": "%"}, {"measurement": "residual activity", "setting": "[13]", "result": 98.4, "unit": "%"}, {"measurement": "residual activity", "setting": "[14]", "result": 105, "unit": "%"}, {"measurement": "residual activity", "setting": "[15]", "result": 99.8, "unit": "%"}, {"measurement": "residual activity", "setting": "[16]", "result": 97.7, "unit": "%"}, {"measurement": "residual activity", "setting": "[17]", "result": 97.2, "unit": "%"}, {"measurement": "residual activity", "setting": "[18]", "result": 88.8, "unit": "%"}, {"measurement": "residual activity", "setting": "[19]", "result": 99.4, "unit": "%"}, {"measurement": "residual activity", "setting": "[20]", "result": 99.5, "unit": "%"}, {"measurement": "residual activity", "setting": "[21]", "result": 92, "unit": "%"}, {"measurement": "residual activity", "setting": "[22]", "result": 107, "unit": "%"}, {"measurement": "residual activity", "setting": "[23]", "result": 98.9, "unit": "%"}, {"measurement": "residual activity", "setting": "[24]", "result": 102, "unit": "%"}, {"measurement": "residual activity", "setting": "[25]", "result": 103, "unit": "%"}, {"measurement": "residual activity", "setting": "[26]", "result": 113, "unit": "%"}, {"measurement": "residual activity", "setting": "[27]", "result": 94.7, "unit": "%"}, {"measurement": "residual activity", "setting": "[28]", "result": 137, "unit": "%"}, {"measurement": "residual activity", "setting": "[29]", "result": 103, "unit": "%"}, {"measurement": "residual activity", "setting": "[30]", "result": 100, "unit": "%"}, {"measurement": "residual activity", "setting": "[31]", "result": 64.8, "unit": "%"}, {"measurement": "residual activity", "setting": "[32]", "result": 90, "unit": "%"}, {"measurement": "residual activity", "setting": "[33]", "result": 94.3, "unit": "%"}, {"measurement": "residual activity", "setting": "[34]", "result": 92.6, "unit": "%"}, {"measurement": "residual activity", "setting": "[35]", "result": 102, "unit": "%"}, {"measurement": "residual activity", "setting": "[36]", "result": 109, "unit": "%"}, {"measurement": "residual activity", "setting": "[37]", "result": 91.8, "unit": "%"}, {"measurement": "residual activity", "setting": "[38]", "result": 122, "unit": "%"}, {"measurement": "residual activity", "setting": "[39]", "result": 97.8, "unit": "%"}, {"measurement": "residual activity", "setting": "[40]", "result": 49, "unit": "%"}, {"measurement": "residual activity", "setting": "[41]", "result": 93.3, "unit": "%"}, {"measurement": "residual activity", "setting": "[42]", "result": 99.1, "unit": "%"}]}, {"smiles": "O=C1C(Cl)=C(N2C(=O)CCC2=O)C(=O)c2ccccc21", "values": [{"measurement": "residual activity", "setting": "[1]", "result": 108, "unit": "%"}, {"measurement": "residual activity", "setting": "[2]", "result": 102, "unit": "%"}, {"measurement": "residual activity", "setting": "[3]", "result": 111, "unit": "%"}, {"measurement": "residual activity", "setting": "[4]", "result": 108, "unit": "%"}, {"measurement": "residual activity", "setting": "[5]", "result": 95.4, "unit": "%"}, {"measurement": "residual activity", "setting": "[6]", "result": 108, "unit": "%"}, {"measurement": "residual activity", "setting": "[7]", "result": 100, "unit": "%"}, {"measurement": "residual activity", "setting": "[8]", "result": 117, "unit": "%"}, {"measurement": "residual activity", "setting": "[9]", "result": 102, "unit": "%"}, {"measurement": "residual activity", "setting": "[10]", "result": 101, "unit": "%"}, {"measurement": "residual activity", "setting": "[11]", "result": 105, "unit": "%"}, {"measurement": "residual activity", "setting": "[12]", "result": 100, "unit": "%"}, {"measurement": "residual activity", "setting": "[13]", "result": 107, "unit": "%"}, {"measurement": "residual activity", "setting": "[14]", "result": 102, "unit": "%"}, {"measurement": "residual activity", "setting": "[15]", "result": 73.6, "unit": "%"}, {"measurement": "residual activity", "setting": "[16]", "result": 92.8, "unit": "%"}, {"measurement": "residual activity", "setting": "[17]", "result": 109, "unit": "%"}, {"measurement": "residual activity", "setting": "[18]", "result": 109, "unit": "%"}, {"measurement": "residual activity", "setting": "[19]", "result": 96.3, "unit": "%"}, {"measurement": "residual activity", "setting": "[20]", "result": 100, "unit": "%"}, {"measurement": "residual activity", "setting": "[21]", "result": 101, "unit": "%"}, {"measurement": "residual activity", "setting": "[22]", "result": 89.1, "unit": "%"}, {"measurement": "residual activity", "setting": "[23]", "result": 135, "unit": "%"}, {"measurement": "residual activity", "setting": "[24]", "result": 101, "unit": "%"}, {"measurement": "residual activity", "setting": "[25]", "result": 95.4, "unit": "%"}, {"measurement": "residual activity", "setting": "[26]", "result": 103, "unit": "%"}, {"measurement": "residual activity", "setting": "[27]", "result": 102, "unit": "%"}, {"measurement": "residual activity", "setting": "[28]", "result": 86.7, "unit": "%"}, {"measurement": "residual activity", "setting": "[29]", "result": 112, "unit": "%"}, {"measurement": "residual activity", "setting": "[30]", "result": 100, "unit": "%"}, {"measurement": "residual activity", "setting": "[31]", "result": 89.5, "unit": "%"}, {"measurement": "residual activity", "setting": "[32]", "result": 108, "unit": "%"}, {"measurement": "residual activity", "setting": "[33]", "result": 88, "unit": "%"}, {"measurement": "residual activity", "setting": "[34]", "result": 106, "unit": "%"}, {"measurement": "residual activity", "setting": "[35]", "result": 106, "unit": "%"}, {"measurement": "residual activity", "setting": "[36]", "result": 88.5, "unit": "%"}, {"measurement": "residual activity", "setting": "[37]", "result": 103, "unit": "%"}, {"measurement": "residual activity", "setting": "[38]", "result": 101, "unit": "%"}, {"measurement": "residual activity", "setting": "[39]", "result": 101, "unit": "%"}, {"measurement": "residual activity", "setting": "[40]", "result": 91.5, "unit": "%"}, {"measurement": "residual activity", "setting": "[41]", "result": 99.3, "unit": "%"}, {"measurement": "residual activity", "setting": "[42]", "result": 93, "unit": "%"}]}]}
